{"source": "ChEMBL document CHEMBL5038626", "about": "(Eur J Med Chem, 2022)", "key": {"[1]": {"molecular_target": "Topoisomerase IV (Staphylococcus aureus, UniProt P0C1S7+P0C1U9)", "sequence (P0C1U9 whole entry)": "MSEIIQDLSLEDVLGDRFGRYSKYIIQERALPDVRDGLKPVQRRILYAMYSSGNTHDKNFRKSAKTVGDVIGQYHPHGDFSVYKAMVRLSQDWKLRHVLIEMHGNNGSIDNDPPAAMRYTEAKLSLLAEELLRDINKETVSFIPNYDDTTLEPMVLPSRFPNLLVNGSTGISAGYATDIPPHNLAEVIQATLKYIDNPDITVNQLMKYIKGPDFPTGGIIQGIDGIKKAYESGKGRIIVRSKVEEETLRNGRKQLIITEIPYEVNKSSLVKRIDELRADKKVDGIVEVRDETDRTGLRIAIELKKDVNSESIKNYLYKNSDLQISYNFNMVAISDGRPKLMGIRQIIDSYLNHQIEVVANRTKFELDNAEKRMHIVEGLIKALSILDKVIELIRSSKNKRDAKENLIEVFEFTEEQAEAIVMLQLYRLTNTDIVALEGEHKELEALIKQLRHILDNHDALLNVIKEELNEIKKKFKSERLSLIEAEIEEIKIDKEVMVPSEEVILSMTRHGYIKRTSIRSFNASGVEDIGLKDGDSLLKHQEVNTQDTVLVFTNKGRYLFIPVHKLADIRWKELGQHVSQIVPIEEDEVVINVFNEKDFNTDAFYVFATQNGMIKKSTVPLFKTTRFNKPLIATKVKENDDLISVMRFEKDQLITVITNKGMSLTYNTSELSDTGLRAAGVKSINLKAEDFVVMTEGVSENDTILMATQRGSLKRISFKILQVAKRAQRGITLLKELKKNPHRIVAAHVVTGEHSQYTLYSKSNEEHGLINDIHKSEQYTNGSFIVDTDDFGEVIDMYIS", "sequence (P0C1S7 whole entry)": "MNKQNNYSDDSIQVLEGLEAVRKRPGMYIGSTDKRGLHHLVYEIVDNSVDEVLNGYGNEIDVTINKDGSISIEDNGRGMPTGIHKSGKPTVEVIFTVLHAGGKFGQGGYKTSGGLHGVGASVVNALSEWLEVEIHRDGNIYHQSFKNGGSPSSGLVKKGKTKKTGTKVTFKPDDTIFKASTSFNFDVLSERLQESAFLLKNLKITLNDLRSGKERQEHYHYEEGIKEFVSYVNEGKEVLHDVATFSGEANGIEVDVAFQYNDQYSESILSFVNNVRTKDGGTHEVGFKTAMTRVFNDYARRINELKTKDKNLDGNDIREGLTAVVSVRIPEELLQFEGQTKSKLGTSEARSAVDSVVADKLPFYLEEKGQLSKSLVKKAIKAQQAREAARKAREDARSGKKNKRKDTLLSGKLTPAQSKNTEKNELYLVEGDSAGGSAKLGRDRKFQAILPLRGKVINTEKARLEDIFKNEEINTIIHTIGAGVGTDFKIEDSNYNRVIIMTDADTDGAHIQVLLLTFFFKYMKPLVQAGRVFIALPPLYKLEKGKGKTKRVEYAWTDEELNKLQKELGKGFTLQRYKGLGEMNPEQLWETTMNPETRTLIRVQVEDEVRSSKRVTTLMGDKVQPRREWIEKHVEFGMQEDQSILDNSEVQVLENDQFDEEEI", "experiment": "Inhibition of Staphylococcus aureus topoisomerase 4 assessed as reduction in decatenation using kDNA as substrate incubated for 30 mins by fluorimetric assay", "assay_type": "protein-complex assay"}, "[2]": {"molecular_target": "DNA gyrase (Escherichia coli, UniProt P0AES4+P0AES6)", "experiment": "Inhibition of Escherichia coli DNA gyrase supercoiling activity using pBR322 as substrate incubated for 30 mins by fluorimetric assay", "assay_type": "protein-complex assay"}, "[3]": {"system": "Staphylococcus aureus", "experiment": "Antibacterial activity against Staphylococcus aureus Newman assessed as inhibition of bacterial growth incubated for 24 hrs by broth microdilution method", "assay_type": "functional"}, "[4]": {"system": "Escherichia coli", "experiment": "Antibacterial activity against Escherichia coli ATCC 8739 assessed as inhibition of bacterial growth incubated for 24 hrs by broth microdilution method", "assay_type": "functional"}, "[5]": {"experiment": "Toxicity in Swiss albino mouse assessed as clonic convulsions at 0.6 mmol/Kg, iv administered as single dose observed for 6 hrs", "assay_type": "organism-based", "details": "in vivo"}, "[6]": {"system": "Mus musculus", "experiment": "Effect on GABA protein expression in Swiss albino mouse assessed as decrease in GABA protein expression at 0.6 mmol/Kg, iv administered as single dose by western blot analysis", "assay_type": "functional, organism-based"}}, "note": "Active and inactive are the calls of the source. The calls are words filed in the database; no cut-off is given here."}
{"smiles": "Cc1cc(NS(=O)(=O)c2ccc(/N=N/N3CCN(c4cc5c(cc4F)c(=O)c(C(=O)O)cn5C4CC4)CC3)cc2)no1", "values": [{"measurement": "IC50", "setting": "[1]", "result": 2.58, "unit": "µM"}, {"measurement": "IC50", "setting": "[2]", "result": 1.95, "unit": "µM"}, {"measurement": "MIC", "setting": "[3]", "result": 0.839, "unit": "µM"}, {"measurement": "MIC", "setting": "[4]", "result": 1.12, "unit": "µM"}]}
{"smiles": "O=C(CCN1CCN(c2cc3c(cc2F)c(=O)c(C(=O)O)cn3C2CC2)CC1)Nc1ccc(S(=O)(=O)Nc2cnc3ccccc3n2)cc1", "values": [{"measurement": "Activity", "setting": "[5]", "result": "Non-Toxic"}, {"measurement": "IC50", "setting": "[1]", "result": 0.23, "unit": "µM"}, {"measurement": "IC50", "setting": "[2]", "result": 0.43, "unit": "µM"}, {"measurement": "MIC", "setting": "[3]", "result": 0.972, "unit": "µM"}, {"measurement": "MIC", "setting": "[4]", "result": 0.608, "unit": "µM"}, {"measurement": "Activity", "setting": "[6]", "result": "Active"}]}
{"smiles": "O=C(CCN1CCN(c2cc3c(cc2F)c(=O)c(C(=O)O)cn3C2CC2)CC1)Nc1ccc(S(=O)(=O)Nc2ncccn2)cc1", "values": [{"measurement": "IC50", "setting": "[1]", "result": 1.8, "unit": "µM"}, {"measurement": "IC50", "setting": "[2]", "result": 1.99, "unit": "µM"}, {"measurement": "MIC", "setting": "[3]", "result": 1.57, "unit": "µM"}, {"measurement": "MIC", "setting": "[4]", "result": 2.62, "unit": "µM"}]}
{"smiles": "NS(=O)(=O)c1ccc(NC(=O)CCN2CCN(c3cc4c(cc3F)c(=O)c(C(=O)O)cn4C3CC3)CC2)cc1", "values": [{"measurement": "IC50", "setting": "[1]", "result": 0.6, "unit": "µM"}, {"measurement": "IC50", "setting": "[2]", "result": 1.1, "unit": "µM"}, {"measurement": "MIC", "setting": "[3]", "result": 2.99, "unit": "µM"}, {"measurement": "MIC", "setting": "[4]", "result": 0.897, "unit": "µM"}]}
{"smiles": "O=C(CN1CCN(c2cc3c(cc2F)c(=O)c(C(=O)O)cn3C2CC2)CC1)Nc1ccc(S(=O)(=O)Nc2cncc(Cl)n2)cc1", "values": [{"measurement": "IC50", "setting": "[1]", "result": 2.29, "unit": "µM"}, {"measurement": "IC50", "setting": "[2]", "result": 0.9, "unit": "µM"}, {"measurement": "MIC", "setting": "[3]", "result": 1.52, "unit": "µM"}, {"measurement": "MIC", "setting": "[4]", "result": 2.54, "unit": "µM"}]}
{"smiles": "Cc1cc(NS(=O)(=O)c2ccc(NC(=O)CCN3CCN(c4cc5c(cc4F)c(=O)c(C(=O)O)cn5C4CC4)CC3)cc2)no1", "values": [{"measurement": "IC50", "setting": "[1]", "result": 3.91, "unit": "µM"}, {"measurement": "IC50", "setting": "[2]", "result": 6.31, "unit": "µM"}, {"measurement": "MIC", "setting": "[3]", "result": 1.04, "unit": "µM"}, {"measurement": "MIC", "setting": "[4]", "result": 5.22, "unit": "µM"}]}
{"smiles": "NS(=O)(=O)c1ccc(/N=N/N2CCN(c3cc4c(cc3F)c(=O)c(C(=O)O)cn4C3CC3)CC2)cc1", "values": [{"measurement": "IC50", "setting": "[1]", "result": 2.43, "unit": "µM"}, {"measurement": "IC50", "setting": "[2]", "result": 3.56, "unit": "µM"}, {"measurement": "MIC", "setting": "[3]", "result": 0.324, "unit": "µM"}, {"measurement": "MIC", "setting": "[4]", "result": 0.025, "unit": "µM"}]}
{"smiles": "CC(C(=O)Nc1ccc(S(N)(=O)=O)cc1)N1CCN(c2cc3c(cc2F)c(=O)c(C(=O)O)cn3C2CC2)CC1", "note": "(stereo unspecified)", "values": [{"measurement": "IC50", "setting": "[1]", "result": 6.66, "unit": "µM"}, {"measurement": "IC50", "setting": "[2]", "result": 5.65, "unit": "µM"}, {"measurement": "MIC", "setting": "[3]", "result": 1.5, "unit": "µM"}, {"measurement": "MIC", "setting": "[4]", "result": 0.897, "unit": "µM"}]}
{"smiles": "O=C(O)c1cn(C2CC2)c2cc(N3CCN(/N=N/c4ccc(S(=O)(=O)Nc5cncc(Cl)n5)cc4)CC3)c(F)cc2c1=O", "values": [{"measurement": "IC50", "setting": "[1]", "result": 12.8, "unit": "µM"}, {"measurement": "IC50", "setting": "[2]", "result": 13, "unit": "µM"}, {"measurement": "MIC", "setting": "[3]", "result": 1.59, "unit": "µM"}, {"measurement": "MIC", "setting": "[4]", "result": 1.33, "unit": "µM"}]}
{"smiles": "NS(=O)(=O)c1ccc(NC(=O)CN2CCN(c3cc4c(cc3F)c(=O)c(C(=O)O)cn4C3CC3)CC2)cc1", "values": [{"measurement": "IC50", "setting": "[1]", "result": 3.77, "unit": "µM"}, {"measurement": "IC50", "setting": "[2]", "result": 1.32, "unit": "µM"}, {"measurement": "MIC", "setting": "[3]", "result": 7.36, "unit": "µM"}, {"measurement": "MIC", "setting": "[4]", "result": 12.3, "unit": "µM"}]}
{"smiles": "NC(N)=NS(=O)(=O)c1ccc(/N=N/N2CCN(c3cc4c(cc3F)c(=O)c(C(=O)O)cn4C3CC3)CC2)cc1", "values": [{"measurement": "Activity", "setting": "[5]", "result": "Non-Toxic"}, {"measurement": "IC50", "setting": "[1]", "result": 0.64, "unit": "µM"}, {"measurement": "IC50", "setting": "[2]", "result": 0.77, "unit": "µM"}, {"measurement": "MIC", "setting": "[3]", "result": 1.8, "unit": "µM"}, {"measurement": "MIC", "setting": "[4]", "result": 3, "unit": "µM"}, {"measurement": "Activity", "setting": "[6]", "result": "Active"}]}
{"smiles": "CC(C(=O)Nc1ccc(S(=O)(=O)Nc2cnc3ccccc3n2)cc1)N1CCN(c2cc3c(cc2F)c(=O)c(C(=O)O)cn3C2CC2)CC1", "note": "(stereo unspecified)", "values": [{"measurement": "IC50", "setting": "[1]", "result": 1.21, "unit": "µM"}, {"measurement": "IC50", "setting": "[2]", "result": 1.44, "unit": "µM"}, {"measurement": "MIC", "setting": "[3]", "result": 0.729, "unit": "µM"}, {"measurement": "MIC", "setting": "[4]", "result": 1.94, "unit": "µM"}]}
{"smiles": "O=C(O)c1cn(C2CC2)c2cc(N3CCN(/N=N/c4ccc(S(=O)(=O)Nc5ncccn5)cc4)CC3)c(F)cc2c1=O", "values": [{"measurement": "IC50", "setting": "[1]", "result": 9.5, "unit": "µM"}, {"measurement": "IC50", "setting": "[2]", "result": 12.8, "unit": "µM"}, {"measurement": "MIC", "setting": "[3]", "result": 0.422, "unit": "µM"}, {"measurement": "MIC", "setting": "[4]", "result": 0.013, "unit": "µM"}]}
{"smiles": "Cc1cc(NS(=O)(=O)c2ccc(NC(=O)C(C)N3CCN(c4cc5c(cc4F)c(=O)c(C(=O)O)cn5C4CC4)CC3)cc2)no1", "note": "(stereo unspecified)", "values": [{"measurement": "Activity", "setting": "[5]", "result": "Non-Toxic"}, {"measurement": "IC50", "setting": "[1]", "result": 0.39, "unit": "µM"}, {"measurement": "IC50", "setting": "[2]", "result": 1.27, "unit": "µM"}, {"measurement": "MIC", "setting": "[3]", "result": 0.783, "unit": "µM"}, {"measurement": "MIC", "setting": "[4]", "result": 1.04, "unit": "µM"}, {"measurement": "Activity", "setting": "[6]", "result": "Active"}]}
{"smiles": "Cc1cc(NS(=O)(=O)c2ccc(NC(=O)CN3CCN(c4cc5c(cc4F)c(=O)c(C(=O)O)cn5C4CC4)CC3)cc2)no1", "values": [{"measurement": "IC50", "setting": "[1]", "result": 4.66, "unit": "µM"}, {"measurement": "IC50", "setting": "[2]", "result": 1.33, "unit": "µM"}, {"measurement": "MIC", "setting": "[3]", "result": 3.2, "unit": "µM"}, {"measurement": "MIC", "setting": "[4]", "result": 7.47, "unit": "µM"}]}
{"smiles": "O=C(CN1CCN(c2cc3c(cc2F)c(=O)c(C(=O)O)cn3C2CC2)CC1)Nc1ccc(S(=O)(=O)Nc2ncccn2)cc1", "values": [{"measurement": "IC50", "setting": "[1]", "result": 2.08, "unit": "µM"}, {"measurement": "IC50", "setting": "[2]", "result": 2.87, "unit": "µM"}, {"measurement": "MIC", "setting": "[3]", "result": 1.61, "unit": "µM"}, {"measurement": "MIC", "setting": "[4]", "result": 1.34, "unit": "µM"}]}
{"smiles": "O=C(O)c1cn(C2CC2)c2cc(N3CCNCC3)c(F)cc2c1=O", "note": "[CIPROFLOXACIN]", "values": [{"measurement": "MIC", "setting": "[3]", "result": 1.36, "unit": "µM"}, {"measurement": "MIC", "setting": "[4]", "result": 0.255, "unit": "µM"}]}
{"smiles": "O=C(O)c1cn(C2CC2)c2cc(N3CCN(/N=N/c4ccc(S(=O)(=O)Nc5cnc6ccccc6n5)cc4)CC3)c(F)cc2c1=O", "values": [{"measurement": "IC50", "setting": "[1]", "result": 12.8, "unit": "µM"}, {"measurement": "IC50", "setting": "[2]", "result": 5.86, "unit": "µM"}, {"measurement": "MIC", "setting": "[3]", "result": 5.19, "unit": "µM"}, {"measurement": "MIC", "setting": "[4]", "result": 0.389, "unit": "µM"}]}
{"smiles": "O=C(CCN1CCN(c2cc3c(cc2F)c(=O)c(C(=O)O)cn3C2CC2)CC1)Nc1ccc(S(=O)(=O)Nc2cncc(Cl)n2)cc1", "values": [{"measurement": "IC50", "setting": "[1]", "result": 0.44, "unit": "µM"}, {"measurement": "IC50", "setting": "[2]", "result": 1.24, "unit": "µM"}, {"measurement": "MIC", "setting": "[3]", "result": 287, "unit": "µM"}, {"measurement": "MIC", "setting": "[4]", "result": 287, "unit": "µM"}]}
{"smiles": "O=C(CN1CCN(c2cc3c(cc2F)c(=O)c(C(=O)O)cn3C2CC2)CC1)Nc1ccc(S(=O)(=O)Nc2cnc3ccccc3n2)cc1", "values": [{"measurement": "Activity", "setting": "[5]", "result": "Non-Toxic"}, {"measurement": "IC50", "setting": "[1]", "result": 0.35, "unit": "µM"}, {"measurement": "IC50", "setting": "[2]", "result": 0.55, "unit": "µM"}, {"measurement": "MIC", "setting": "[3]", "result": 1.99, "unit": "µM"}, {"measurement": "MIC", "setting": "[4]", "result": 0.744, "unit": "µM"}, {"measurement": "Activity", "setting": "[6]", "result": "Active"}]}
